According to patent US7781421B2, “Neuroactive 13, 24-cyclo-18, 21-dinorcholanes and structurally related pentacyclic steriods” (Washington University, priority 2003, dated 2010):
“And” between values parts separate entries of the source, which are not always exact repeats. Equal values may be shown once. Read-outs that look alike come from different tables or passages of the source.

Assays:
[1] = target: GABAA receptor ([35S]-TBPS binding site, rat brain cortical membranes); assay: Displacement of [35S]-TBPS binding, rat brain cortical membranes; settings: 5 μM GABA, 2 nM [35S]-TBPS; ± standard error of the means
In short: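 Rat cortical P2 membranes (0.5 mg/mL protein) incubated 2 h at room temperature with 2 nM [35S]-TBPS, 5 μM GABA and steroid (1 nM–10 μM) in 200 mM NaCl/50 mM potassium phosphate, pH 7.4. Filter-bound radioactivity counted; IC50 from Hill equation fit, triplicate points.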

[2] = target: T1, rat α1β2γ2 GABAA Receptor (Rattus norvegicus, UniProt P18508+P62813+P63138, INS375LLRMFSFK); assay: Xenopus oocyte two-electrode voltage-clamp electrophysiology; assay type: cell-based; settings: for Oocyte electrophysiology, ratio of currents in presence/absence of compound, 0.1 μM: 0.1 μM compound co-applied with 2 μM GABA; for Oocyte electrophysiology, ratio of currents in presence/absence of compound, 0.1 μM / Oocyte electrophysiology, ratio of currents in presence/absence of compound, 1 μM / Oocyte electrophysiology, ratio of currents in presence/absence of compound, 10 μM: −70 mV; for Oocyte electrophysiology, ratio of currents in presence/absence of compound, 1 μM: 1 μM compound co-applied with 2 μM GABA; for Oocyte electrophysiology, ratio of currents in presence/absence of compound, 10 μM: 10 μM compound co-applied with 2 μM GABA; for Gating (10 μM), ratio of compound only current/2 μM GABA current: direct current gated by 10 μM compound in the absence of GABA
T1 construct: from linearized pBluescript vectors containing receptor coding regions; expressed in transfected cells; host or cells: Xenopus laevis oocytes injected with in vitro transcribed capped mRNA
T1 sequence (P62813 28-455, stated change not applied): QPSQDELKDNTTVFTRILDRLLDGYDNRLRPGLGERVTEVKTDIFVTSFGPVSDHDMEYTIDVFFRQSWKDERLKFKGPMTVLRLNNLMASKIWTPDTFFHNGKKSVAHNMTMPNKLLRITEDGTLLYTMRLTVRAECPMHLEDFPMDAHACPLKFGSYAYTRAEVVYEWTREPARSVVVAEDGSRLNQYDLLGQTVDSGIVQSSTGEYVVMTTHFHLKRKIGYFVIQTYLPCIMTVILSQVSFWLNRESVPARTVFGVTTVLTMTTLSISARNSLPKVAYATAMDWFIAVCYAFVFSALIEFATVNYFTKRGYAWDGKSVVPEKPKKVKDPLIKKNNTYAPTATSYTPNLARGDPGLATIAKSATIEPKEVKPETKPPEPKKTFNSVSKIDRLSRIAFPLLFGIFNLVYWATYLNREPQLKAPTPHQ
T1 sequence (P63138 26-474, stated change not applied): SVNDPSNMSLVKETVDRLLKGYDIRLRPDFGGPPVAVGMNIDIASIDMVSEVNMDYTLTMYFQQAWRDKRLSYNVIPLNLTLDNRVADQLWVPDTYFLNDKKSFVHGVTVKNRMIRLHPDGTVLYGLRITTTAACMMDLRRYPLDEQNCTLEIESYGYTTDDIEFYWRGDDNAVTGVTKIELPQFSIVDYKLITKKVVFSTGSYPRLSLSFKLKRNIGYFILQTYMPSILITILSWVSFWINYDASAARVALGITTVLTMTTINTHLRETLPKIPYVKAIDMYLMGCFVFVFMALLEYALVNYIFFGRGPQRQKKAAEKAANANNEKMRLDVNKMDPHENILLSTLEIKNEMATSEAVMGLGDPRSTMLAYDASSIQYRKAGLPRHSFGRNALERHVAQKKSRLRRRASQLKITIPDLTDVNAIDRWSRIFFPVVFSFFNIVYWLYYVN
T1 sequence (P18508 with tags, fused parts or gaps INS375LLRMFSFK): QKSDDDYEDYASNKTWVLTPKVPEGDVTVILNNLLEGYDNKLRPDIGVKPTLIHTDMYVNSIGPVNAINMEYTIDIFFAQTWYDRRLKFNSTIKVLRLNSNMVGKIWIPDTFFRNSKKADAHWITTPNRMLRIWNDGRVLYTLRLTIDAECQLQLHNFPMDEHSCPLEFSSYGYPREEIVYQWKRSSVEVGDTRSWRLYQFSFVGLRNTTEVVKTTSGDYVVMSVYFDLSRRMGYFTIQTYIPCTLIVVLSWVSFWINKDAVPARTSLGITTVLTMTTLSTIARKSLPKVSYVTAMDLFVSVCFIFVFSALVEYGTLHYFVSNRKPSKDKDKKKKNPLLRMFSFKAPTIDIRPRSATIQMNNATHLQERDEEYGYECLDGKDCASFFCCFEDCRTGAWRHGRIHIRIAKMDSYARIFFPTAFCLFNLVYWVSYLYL
In short: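 Oocytes injected with rat α1, β2, γ2L mRNA, voltage-clamped at −70 mV 2-5 days later in ND96. Compounds co-applied with 2 μM GABA for 20 s; peak current ratio with/without compound, n≥4 oocytes. (G): current from 10 μM compound alone, as ratio to 2 μM GABA current.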

[3] = system: Xenopus laevis tadpoles; assay: Tadpole loss of righting (LRR) and swimming (LSR) reflexes; assay type: in vivo; settings: 3 h equilibration at room temperature; for EC50: read-out: LSR EC50 (loss of swimming response)
In short: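 Groups of 10 early prelimb-bud Xenopus laevis tadpoles were held for 3 h at room temperature in oxygenated Ringer's containing compound (DMSO ≤0.1%). Loss of righting was scored as failure to right within 5 sec after flipping, and loss of swimming as failure to swim when touched. EC50 came from a Hill equation fit.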

Structure (SMILES)	IC50 [1] [nM]	Oocyte electrophysiology, ratio of currents in presence/absence of compound, 0.1 μM [2]	Oocyte electrophysiology, ratio of currents in presence/absence of compound, 1 μM [2]	Oocyte electrophysiology, ratio of currents in presence/absence of compound, 10 μM [2]	Gating (10 μM), ratio of compound only current/2 μM GABA current [2]	LRR ED50 (loss of righting response) [3] [nM]	LSR EC50 (loss of swimming response) [3]	melting point	Reversibility of steroid effect on GABA current (FIG. 1A) ([2]; 500 nM compound, 2 μM GABA, GABA recovery panel)	EC50 [3] [nM]	EC50 ([3]; Xenopus laevis, 3 h) [nM]
C[C@]12CC[C@@H](O)C[C@@H]1CCC1C3CC[C@@H]4CC(=O)CC[C@]34CCC12 (stereo partly drawn) [Compound 3a, (3α,5α)-3-Hydroxy-13,24-cyclo-18,21-dinorcholan-22-one]	1440	1.30 ± 0.15	1.61 ± 0.22	2.93 ± 0.68	0.06 ± 0.06	2370 ± 470	None @ 10	195 to 197 °C			
C[C@]12CC[C@@H](O)C[C@@H]1CCC1C3CC[C@@H]4[C@@H]5O[C@@H]5CC[C@]34CCC12 (stereo partly drawn) [Compound 72, (3α,5α,20S,22R)-20,22-epoxy-13,24-cyclo-18,21-dinorcholan-3l]	323 ± 25	0.90 ± 0.15	2.20 ± 0.25	6.39 ± 1.33	−0.01 ± 0.04	19300 ± 30800	None @ 10	203.5 to 205 °C			
CC12CCC(O)CC1CCC1C2CCC23C(=O)C=CCC2CCC13 (stereo not drawn) [Compound 35a, (3α,5α)-3-Hydroxy-13,24-cyclo-18,21-dinorchol-22-en-24-one]	197 ± 23	1.98 ± 0.25	8.33 ± 0.75	9.45 ± 4.19	0.07 ± 0.10	1020 ± 0		242 to 243 °C	readily reversible	2660	
C[C@]12CC[C@@H](O)C[C@H]1CCC1C3CCC4CCC(=O)C[C@@]43CCC12 (stereo partly drawn) [Compound 4b, (3α,5β)-3-Hydroxy-13,24-cyclo-18,21-dinorcholan-23-one]	899 ± 150	0.97 ± 0.03	1.03 ± 0.08	3.17 ± 0.42	0.01 ± 0.01	1440 ± 20		197 to 198 °C			3550 ± 1150
C[C@]12CC[C@@H](O)C[C@@H]1CCC1C3CC[C@@H]4/C(=C/C#N)CCC[C@]34CCC12 (stereo partly drawn) [Compound 63, (3α,5α,20E)-3-Hydroxy-13,24-cyclo-18-norcholan-20-ene-21-carbonitrile]	11 ± 1.8	6.29 ± 1.71	12.34 ± 3.28	17.82 ± 3.75	0.01 ± 0.02	40 ± 0		210 to 212 °C and 214 to 216 °C			80 ± 20
C[C@]12CC[C@@H](O)C[C@@H]1CCC1C3CC[C@@H]4[C@@H](C#N)CCC[C@]34CCC12 (stereo partly drawn) [Compound 40, (3α,5α,20S)-3-Hydroxy-13,24-cyclo-18,21-dinorcholane-20-carbonitrile]	173 ± 12	1.06 ± 0.03	1.23 ± 0.02	1.27 ± 0.02	−0.01 ± 0.01	>10000	None @ 10	250 to 251 °C			
CC12CCC(O)CC1CCC1C2CCC23CCC(=CC#N)C2CCC13 (stereo not drawn) [Compound 96, (3α,5α,20E)-3-Hydroxy-18,21-cyclopregnan-20-ylideneacetonitrile]	168 ± 32	1.40 ± 0.21	2.33 ± 0.30	2.90 ± 0.29	0.03 ± 0.03	2770 ± 1160	None @ 10	201 to 202.5 °C			
CC12CCC(O)CC1CCC1C2CCC23C(=O)C=CCC2CCC13 (stereo not drawn) [Compound 35b, (3α,5β)-3-Hydroxy-13,24-cyclo-18,21-dinorchol-22-en-24-one]	105 ± 12	1.36 ± 0.60	3.15 ± 1.19	21.38 ± 11.08	0.20 ± 0.19	400 ± 130		222 to 223 °C		1000	
C[C@]12CC[C@@H](O)C[C@@H]1CCC1C3CC[C@@H]4[C@H](C#N)CCC[C@]34CCC12 (stereo partly drawn) [Compound 39, (3α,5α,20R)-3-Hydroxy-13,24-cyclo-18,21-dinorcholane-20-carbonitrile]	1670 ± 138	1.04 ± 0.03	1.12 ± 0.08	1.70 ± 0.10	0.04 ± 0.04	490 ± 90	None @ 10	213 to 214 °C			
CC12CCC(O)CC1CCC1C2CCC23C=CC(=O)C2CCC13 (stereo not drawn) [Compound 94, (3α,5α)-3-Hydroxy-18,21-cyclopregn-18(21)-en-20-one]	745 ± 75	0.96 ± 0.02	1.41 ± 0.09	2.78 ± 0.13	−0.04 ± 0.02	3370 ± 160		139 to 141 °C			9520
C=C1CCC[C@]23CCC4C(CC[C@H]5C[C@H](O)CC[C@]45C)C2CC[C@H]13 (stereo partly drawn) [Compound 51, (3α,5α)-20-Methylene-13,24-cyclo-18,21-dinorcholan-3-ol]	181 ± 9	0.90 ± 0.15	0.93 ± 0.08	0.95 ± 0.05	−0.06 ± 0.06	>10000	None @ 10	211 to 213 °C			
CC12CCC(O)CC1CCC1C2CCC23C=CC(=O)CC2CCC13 (stereo not drawn) [Compound 30b, (3α,5β)-3-Hydroxy-13,24-cyclo-18,21-dinorchol-23-en-22-one]	4750 ± 970	1.87 ± 0.24	1.80 ± 0.25	4.44 ± 0.87	0.26 ± 0.31	560 ± 900		196.5 to 199 °C		5480	
C=C1CCC[C@]23CCC4C(CC[C@@H]5C[C@H](O)CC[C@]45C)C2CC[C@H]13 (stereo partly drawn) [Compound 52, (3α,5α)-20-Methylene-13,24-cyclo-18,21-dinorcholan-3-ol]	213 ± 21	1.57 ± 0.16	3.47 ± 0.50	6.22 ± 0.92	−0.02 ± 0.02	4880 ± 1120		131 to 133 °C			> 10000
CC12CCC(O)CC1CCC1C2CCC23C(=O)CCCC2CCC13 (stereo not drawn) [Compound 5a, (3α,5α)-3-Hydroxy-13,24-cyclo-18,21-dinorcholan-24-one]	301 ± 20	1.22 ± 0.23	3.05 ± 0.79	10.73 ± 1.87	0.39 ± 0.69	320 ± 20		203 to 204 °C		1730 ± 30	
